Tested on: 361931-004-R-J1-PDC multicell spheroid viability
Experiment: Anticancer human tumor 361931-004-R-J1-PDC patient-derived colon adenocarcinoma cell line growth inhibition [PI3K]
Conditions: for IC50: curve of first compound; for viability, T/C: stronger effect = lower value
Excerpt: Combinatorial screen of targeted agents with the PI3K inhibitors inavolisib, alpelisib, duvelisib, and copanlisib in multi-cell type tumor spheroids
A high-throughput screen of multi-cell type tumor spheroids was designed to identify active combinations of targeted small molecules and PI3K pathway inhibitors. Complex spheroids include a stromal component modeled by human endothelial cells (HUVEC) and fibroblasts modeled by human mesenchymal stem cells (MSCs). The concentration ranges selected for each drug and investigational agent were based upon clinically achievable concentrations if the clinical Cmax of the agent was known.
Compounds. The drugs and investigational agents: inavolisib (NSC800729), alpelisib (NSC765974), duvelisib (NSC772469), copanlisib (NSC816437), ipatasertib (NSC767898), afuresertib (NSC778305), talazoparib (NSC767125), sapanisertib (NSC764658), selumetinib (NSC741078), tovorafenib (DAY101, NSC766906), vemurafenib (NSC761431), ravoxertinib (NSC781343), sotorasib (NSC818433), MRTX1133 (NSC 836407), abemaciclib (NSC 768073), palbociclib (NSC758247), venetoclax (NSC 766270), SY5609 (NSC837396), enzalutamide (NSC755605), and darolutamide (NSC825331), were obtained from the National Cancer Institute (NCI) Developmental Therapeutics Program Chemical Repository. The FDA-approved anticancer drug set is available from the NCI Developmental Therapeutics Program. […] The stock solutions were prepared in dimethyl sulfoxide (DMSO, Sigma-Aldrich, St. Louis, MO, cat. D2650) at 800-fold the tested concentration and stored at -70 degrees C prior to their use. All drugs and investigational agents were tested over a range starting from a high concentration at or near the clinical Cmax and decreasing in half-log increments. If the clinical Cmax for an agent had not been determined, the highest concentration tested was 10 microM.
Cell Culture. All cells were maintained in an incubator at 37 degrees C and 5% CO2 with 95% humidity. The PDC lines were cultured according to standard operating procedures established by the NCI PDMR (https://pdmr.cancer.gov/sops/default.htm). All PDCs were thawed and cultured in Matrigel-coated flasks prepared with a working solution of 1X Ham's F-12 nutrient mix, without supplementation (Invitrogen, Waltham, MA, cat. 11765054), 100 U/mL penicillin-streptomycin (Invitrogen, cat. 15140122), and 2.5% Matrigel (Corning Inc., Corning, NY, cat. 354248) for the first three passages. The 354836-022-R-J1-PDC, 475296-252-R-J1-PDC, and 997726-040-R-J2-PDC lines were cultured in 6A media, which includes advanced DMEM/F-12 (Thermo Fisher Scientific, cat. 12634028), 10 mM HEPES (Thermo Fisher Scientific, cat. 15630080), 1X GlutaMAX supplement (Thermo Fisher Scientific, cat. 35050061), 0.1 mg/mL primocin (InvivoGen, San Diego, CA, cat. ant-pm-2), 10% defined fetal bovine serum, heat inactivated (HyClone Laboratories Inc., Logan, UT, cat. SH30070.03HI), 50% L-WRN conditioned media (ATCC, cat. CRL-3276), 1.25 mM N-Acetyl-L-cysteine (Sigma-Aldrich, cat. A9165), 10 mM nicotinamide (Sigma-Aldrich, cat. N0636), 1X B-27 supplement (Thermo Fisher Scientific, cat. 17504044), 1X N-2 supplement (Thermo Fisher Scientific, cat. 17502048), and 10 microM Y-27632 dihydrochloride (Tocris Bioscience, Bristol, United Kingdom, cat. 1254). The 624824-186-R-J2-PDC line was cultured in 6C/Colon 1B media, which includes all 6A media components plus 50 ng/mL human EGF recombinant protein (Thermo Fisher Scientific, cat. PHG0311). […]

[1] = second compound 0.0316 µM, first compound 0.0316 µM
[2] = second compound 0.0316 µM, first compound 0.1 µM
[3] = second compound 0.0316 µM, first compound 0.316 µM
[4] = second compound 0.0316 µM, first compound 1 µM
[5] = second compound 0.0316 µM, first compound 3.16 µM
[6] = second compound 0.0316 µM, first compound 10 µM
[7] = second compound 0.1 µM, first compound 0.0316 µM
[8] = second compound 0.1 µM, first compound 0.1 µM
[9] = second compound 0.1 µM, first compound 0.316 µM
[10] = second compound 0.1 µM, first compound 1 µM
[11] = second compound 0.1 µM, first compound 3.16 µM
[12] = second compound 0.1 µM, first compound 10 µM
[13] = second compound 0.316 µM, first compound 0.0316 µM
[14] = second compound 0.316 µM, first compound 0.1 µM
[15] = second compound 0.316 µM, first compound 0.316 µM
[16] = second compound 0.316 µM, first compound 1 µM
[17] = second compound 0.316 µM, first compound 3.16 µM
[18] = second compound 0.316 µM, first compound 10 µM
[19] = second compound 1 µM, first compound 0.0316 µM
[20] = second compound 1 µM, first compound 0.1 µM
[21] = second compound 1 µM, first compound 0.316 µM
[22] = second compound 1 µM, first compound 1 µM
[23] = second compound 1 µM, first compound 3.16 µM
[24] = second compound 1 µM, first compound 10 µM
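Note: spheroids exposed to agents for seven days before readout.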

Cn1ncc(Cl)c1-c1cc(C(=O)NC(CN)Cc2cccc(F)c2)sc1Cl (centres undefined) + CC(Nc1ccc2c(c1)OCCn1cc(N3C(=O)OCC3C(F)F)nc1-2)C(N)=O
IC50 (second compound 0.00316 µM): 1090 nM
IC50 (second compound 0.01 µM): 900 nM
IC50 (second compound 0.0316 µM): 695 nM
IC50 (second compound 0.1 µM): 730 nM
IC50 (second compound 0.316 µM): 965 nM
IC50 (second compound 1 µM): 654 nM
viability, T/C (second compound 0.00316 µM, first compound 0.0316 µM): 92.5%
viability, T/C (second compound 0.00316 µM, first compound 0.1 µM): 91.9%
viability, T/C (second compound 0.00316 µM, first compound 0.316 µM): 76.6%
viability, T/C (second compound 0.00316 µM, first compound 1 µM): 50.9%
viability, T/C (second compound 0.00316 µM, first compound 3.16 µM): 32.2%
viability, T/C (second compound 0.00316 µM, first compound 10 µM): 22.6%
viability, T/C (second compound 0.01 µM, first compound 0.0316 µM): 99%
viability, T/C (second compound 0.01 µM, first compound 0.1 µM): 94.5%
viability, T/C (second compound 0.01 µM, first compound 0.316 µM): 68.7%
viability, T/C (second compound 0.01 µM, first compound 1 µM): 48.4%
viability, T/C (second compound 0.01 µM, first compound 3.16 µM): 29%
viability, T/C (second compound 0.01 µM, first compound 10 µM): 15.4%
viability, T/C [1]: 103%
viability, T/C [2]: 110%
viability, T/C [3]: 75.2%
viability, T/C [4]: 37.3%
viability, T/C [5]: 25.8%
viability, T/C [6]: 12.8%
viability, T/C [7]: 85%
viability, T/C [8]: 87.7%
viability, T/C [9]: 67%
viability, T/C [10]: 41.6%
viability, T/C [11]: 26.1%
viability, T/C [12]: 12.8%
viability, T/C [13]: 90.1%
viability, T/C [14]: 77.9%
viability, T/C [15]: 68.8%
viability, T/C [16]: 54.2%
viability, T/C [17]: 22.4%
viability, T/C [18]: 14.6%
viability, T/C [19]: 82.6%
viability, T/C [20]: 79.4%
viability, T/C [21]: 59.5%
viability, T/C [22]: 45.1%
viability, T/C [23]: 24%
viability, T/C [24]: 16.1%

CNC(=O)c1ccc(N2C(=S)N(c3ccc(C#N)c(C(F)(F)F)c3)C(=O)C2(C)C)cc1F + CC(Nc1ncnc2nc[nH]c12)c1cc2cccc(Cl)c2c(=O)n1-c1ccccc1
IC50 (second compound 0.0316 µM): > 10000 nM
IC50 (second compound 0.1 µM): > 10000 nM
IC50 (second compound 0.316 µM): > 10000 nM
IC50 (second compound 1 µM): > 10000 nM
IC50 (second compound 3.16 µM): > 10000 nM
IC50 (second compound 10 µM): > 10000 nM
viability, T/C [1]: 97.8%
viability, T/C [2]: 103%
viability, T/C [3]: 97.7%
viability, T/C [4]: 96.6%
viability, T/C [5]: 103%
viability, T/C [6]: 85.7%
viability, T/C [7]: 110%
viability, T/C [8]: 102%
viability, T/C [9]: 97.8%
viability, T/C [10]: 93.7%
viability, T/C [11]: 106%
viability, T/C [12]: 103%
viability, T/C [13]: 102%
viability, T/C [14]: 93%
viability, T/C [15]: 97.9%
viability, T/C [16]: 105%
viability, T/C [17]: 101%
viability, T/C [18]: 97.3%
viability, T/C [19]: 101%
viability, T/C [20]: 106%
viability, T/C [21]: 99.4%
viability, T/C [22]: 104%
viability, T/C [23]: 106%
viability, T/C [24]: 97.2%
viability, T/C (second compound 3.16 µM, first compound 0.0316 µM): 101%
viability, T/C (second compound 3.16 µM, first compound 0.1 µM): 109%
viability, T/C (second compound 3.16 µM, first compound 0.316 µM): 97.1%
viability, T/C (second compound 3.16 µM, first compound 1 µM): 101%
viability, T/C (second compound 3.16 µM, first compound 3.16 µM): 104%
viability, T/C (second compound 3.16 µM, first compound 10 µM): 93.4%
viability, T/C (second compound 10 µM, first compound 0.0316 µM): 107%
viability, T/C (second compound 10 µM, first compound 0.1 µM): 105%
viability, T/C (second compound 10 µM, first compound 0.316 µM): 104%
viability, T/C (second compound 10 µM, first compound 1 µM): 94.2%
viability, T/C (second compound 10 µM, first compound 3.16 µM): 112%
viability, T/C (second compound 10 µM, first compound 10 µM): 96.3%

— PubChem BioAssay AID1963979 (Molecular Pharmacology Branch, DTP, NCI, 2024)
